Measurements from patent US8889711B2, “Pyrazolopyridine derivatives as anticancer agent” (Pierre Fabre Medicament, priority 2009, dated 2014).

What was measured:
ALK kinase = ALK kinase (Homo sapiens, UniProt Q9UM73); assay: Test to measure ALK kinase inhibition (GST-PLCγ1 substrate, anti-phosphotyrosine ELISA, luminescence); type: biochemical; settings: ALK kinase 180 ng/ml, 250 μM ATP, 30 minutes at 30° C.
Procedure: Test to Measure ALK Kinase Inhibition
A ViewPlate (Packard) is incubated with the GST-PLCγ1 substrate (purified recombinant form) at 0.1 mg/ml in phosphate buffer (PBS pH 7.4)(100 μl/well) for one hour under shaking. The plate is then saturated with a blocking solution containing 5% bovine serum albumin (BSA) (SIGMA) in PBS buffer pH 7.4.
After adding the inhibitor at the desired final concentration (usual range of 30 μM to 10 nM), the reaction is conducted by adding the ALK kinase at 180 ng/ml in 13 mM Tris reaction buffer pH 7.5 (SIGMA); 6.5 mM MgCl2 (MERCK); 0.65 mM DiThioThreitol (DTT) (ACROS); 39 mM sodium β-glycerophosphate (TCI); 0.65 mM sodium orthovanadate (SIGMA) and 250 μM ATP (SIGMA). Incubation is carried out for 30 minutes at 30° C. under shaking.
After three washings under shaking in 0.1% PBS/Tween-20 buffer (SIGMA), an anti-phosphotyrosine antibody coupled with HRP (UBI) diluted to 1/1000th in PBS/BSA buffer 5 mg/ml, is incubated for one hour under shaking. After three further washings in 0.1% PBS/Tween-20, the wells are incubated two minutes with 100 μl of SuperSignal ELISA mixture (PIERCE).
The signal is read in luminescent mode using a luminometer (MOLECULAR DEVICES SpectraMax M5e).

karpas 299 cells = assay: Measurement of inhibition of cell proliferation (Karpas), ATPlite; type: cell-based
Procedure: Measurement of Inhibition of Cell Proliferation (Karpas):
The antiproliferative activities of the compounds were measured using the ATPlite technique (Perkin Elmer).
The non-adhering cells (karpas 299) are seeded in 96-well plates (300 000 cells/ml) on Day 1 at a concentration compatible with logarithmic growth for 72 hours required for evaluation of the compounds. All the cells are treated on Day 1, then placed in an incubator at 37° C. under 5% CO2 atmosphere. Cell viability is evaluated on Day 4 by assay of released ATP, characteristic of viable cells. The IC50 values are determined by non-linear regression on the basis of a sigmoid model of dose/response relationship, Hill's slope coefficient being left variable, performed using GraphPad software sequence with the supplied algorithm.

Chain of ALK kinase (Q9UM73 19-1620): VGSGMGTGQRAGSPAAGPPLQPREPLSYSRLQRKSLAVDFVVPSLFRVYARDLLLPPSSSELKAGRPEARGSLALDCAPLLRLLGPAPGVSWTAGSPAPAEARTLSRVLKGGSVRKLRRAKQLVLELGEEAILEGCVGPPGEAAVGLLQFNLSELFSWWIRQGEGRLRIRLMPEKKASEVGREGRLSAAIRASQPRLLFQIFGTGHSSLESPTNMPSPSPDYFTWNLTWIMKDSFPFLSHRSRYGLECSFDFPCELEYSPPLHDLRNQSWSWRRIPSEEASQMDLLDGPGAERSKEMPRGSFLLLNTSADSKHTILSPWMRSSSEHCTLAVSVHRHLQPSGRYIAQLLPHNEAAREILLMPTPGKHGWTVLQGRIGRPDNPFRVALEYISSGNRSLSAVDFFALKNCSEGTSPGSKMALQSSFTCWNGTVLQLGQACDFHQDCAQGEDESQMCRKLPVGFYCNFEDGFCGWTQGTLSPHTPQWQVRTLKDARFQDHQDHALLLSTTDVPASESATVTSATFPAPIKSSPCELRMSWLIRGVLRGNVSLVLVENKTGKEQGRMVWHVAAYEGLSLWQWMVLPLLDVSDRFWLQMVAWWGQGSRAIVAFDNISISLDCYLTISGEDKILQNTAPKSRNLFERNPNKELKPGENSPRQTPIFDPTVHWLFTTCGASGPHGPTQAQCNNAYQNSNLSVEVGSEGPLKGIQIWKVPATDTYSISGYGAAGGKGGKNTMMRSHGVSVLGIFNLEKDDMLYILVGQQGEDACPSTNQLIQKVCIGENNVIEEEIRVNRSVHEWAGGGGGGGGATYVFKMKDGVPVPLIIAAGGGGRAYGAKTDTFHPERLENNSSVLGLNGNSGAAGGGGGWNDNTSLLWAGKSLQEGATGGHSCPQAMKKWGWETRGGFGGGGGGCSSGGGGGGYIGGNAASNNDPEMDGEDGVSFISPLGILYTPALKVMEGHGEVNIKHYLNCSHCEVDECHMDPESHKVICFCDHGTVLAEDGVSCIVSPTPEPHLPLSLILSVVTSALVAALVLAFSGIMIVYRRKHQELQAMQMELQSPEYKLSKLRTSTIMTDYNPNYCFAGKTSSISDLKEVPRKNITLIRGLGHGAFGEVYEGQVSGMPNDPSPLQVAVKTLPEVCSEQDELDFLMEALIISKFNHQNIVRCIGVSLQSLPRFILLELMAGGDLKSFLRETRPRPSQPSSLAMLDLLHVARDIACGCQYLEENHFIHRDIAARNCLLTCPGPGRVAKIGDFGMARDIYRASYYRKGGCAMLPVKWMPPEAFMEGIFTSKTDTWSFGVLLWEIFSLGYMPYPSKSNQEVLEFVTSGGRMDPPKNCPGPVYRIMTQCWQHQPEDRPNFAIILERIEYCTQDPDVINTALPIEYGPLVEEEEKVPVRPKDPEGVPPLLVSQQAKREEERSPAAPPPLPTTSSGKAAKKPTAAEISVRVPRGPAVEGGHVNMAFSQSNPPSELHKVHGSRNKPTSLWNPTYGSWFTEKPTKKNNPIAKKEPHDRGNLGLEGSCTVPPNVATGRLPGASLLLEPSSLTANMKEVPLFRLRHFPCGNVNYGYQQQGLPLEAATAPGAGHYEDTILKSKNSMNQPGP

SMILES | IC50 (ALK kinase) | IC50 (karpas 299 cells; Homo sapiens, KARPAS-299, 72 h) | IC50 (karpas 299 cells; 72 hours)
Cc1n[nH]c2nc(-c3ccc(O)cc3)c(C#N)c(-c3ccc(O)cc3)c12 [Compound 19] | 100 to 1000 nM | 1000 to 10000 nM | 
N#Cc1c(-c2ccc(O)cc2)nc2[nH]ncc2c1-c1ccco1 [Compound 44] | < 100 nM | 100 to 1000 nM | 
N#Cc1c(-c2ccc(O)cc2)nc2[nH]ncc2c1-c1ccoc1 [Compound 45] | 100 to 1000 nM | 1000 to 10000 nM | 
CN1CCN(Cc2ccc(-c3c(C#N)c(-c4ccc(O)cc4)nc4[nH]ncc34)cc2)CC1 [Compound 47] | 1000 to 10000 nM | 1000 to 10000 nM | 
N#Cc1c(-c2ccc(O)cc2)nc2[nH]ncc2c1-c1nccs1 [Compound 48] | 100 to 1000 nM | 1000 to 10000 nM | 
N#Cc1c(-c2ccc(O)cc2)nc2[nH]ncc2c1-c1ccsc1 [Compound 50] | 100 to 1000 nM | 1000 to 10000 nM | 
N#Cc1c(-c2ccc(O)cc2)nc2[nH]ncc2c1-c1cccs1 [Compound 52] | 100 to 1000 nM | 1000 to 10000 nM | 
N#Cc1c(-c2ccc(O)cc2)nc2[nH]ncc2c1-c1ccc(CN)cc1 [Compound 53] | 100 to 1000 nM | 1000 to 10000 nM | 
N#Cc1c(-c2ccc(O)cc2)nc2[nH]ncc2c1-c1ccc(Cn2ccnc2)cc1 [Compound 54] | 1000 to 10000 nM | > 10000 nM | 
N#Cc1c(-c2ccc(O)cc2)nc2[nH]ncc2c1-c1ccc(OCCN2CCOCC2)cc1 [Compound 73] | 100 to 1000 nM |  | 
COc1cc(-c2cc3[nH]ncc3c(-c3ccco3)c2C#N)ccc1O [Compound 74] | 100 to 1000 nM |  | 
N#Cc1c(-c2ccc(O)c(F)c2)cc2[nH]ncc2c1-c1ccco1 [Compound 76] | 100 to 1000 nM | 1000 to 10000 nM | 
Cc1n[nH]c2nc(-c3ccc(O)cc3)c(C#N)c(-c3ccco3)c12 [Compound 78] | 100 to 1000 nM | 1000 to 10000 nM | 
Cc1n[nH]c2cc(-c3ccc(O)cc3F)c(C#N)c(-c3ccc(CN)o3)c12 [Compound 80] | 100 to 1000 nM | 1000 to 10000 nM | 
Cc1n[nH]c2cc(-c3ccc(O)cc3F)c(C#N)c(-c3ccco3)c12 [Compound 81] | < 100 nM | 100 to 1000 nM | 
Cc1n[nH]c2nc(-c3cc(Br)c(O)c(Br)c3F)c(C#N)c(-c3ccco3)c12 [Compound 90] | 1000 to 10000 nM | > 10000 nM | 
N#Cc1c(-c2ccc(O)cc2F)nc2[nH]nc(N)c2c1-c1ccco1 [Compound 93] | > 10000 nM | 100 to 1000 nM | 
Cc1c(C#N)c(-c2ccc(O)cc2)nc2[nH]nc(-c3ccnc(N4CCN(C)CC4)c3)c12 [Compound 103] | 100 to 1000 nM | > 10000 nM | 
CN1CCN(c2ccc(-c3c(C#N)c(-c4ccc(O)cc4F)nc4[nH]nc(N)c34)o2)CC1 [Compound 104] | < 100 nM | 1000 to 10000 nM | 
N#Cc1cc2c(N)n[nH]c2nc1-c1ccc(O)cc1F [Compound 105] | 100 to 1000 nM | 1000 to 10000 nM | 
Cc1c(C#N)c(-c2ccc(O)cc2F)nc2[nH]nc(-c3csc(C4CCNCC4)n3)c12 [Compound 108] | < 100 nM | 1000 to 10000 nM | 
Cc1c(C#N)c(-c2ccc(O)cc2F)nc2[nH]nc(N)c12 [Compound 114] | 100 to 1000 nM | 1000 to 10000 nM | 
Cc1c(C#N)c(-c2ccc(O)cc2F)nc2[nH]nc(-c3ccc(N4CCN(C)CC4)nc3)c12 [Compound 115] | 100 to 1000 nM | 1000 to 10000 nM | 
Cc1c(C#N)c(-c2ccc(O)cc2F)nc2[nH]nc(-c3ccc(N(C)CCN(C)C)nc3)c12 [Compound 119] | 100 to 1000 nM | 1000 to 10000 nM | 
Cc1n[nH]c2nc(Cc3ccc(F)cc3F)c(C#N)c(-c3ccc(N4CCNCC4)cc3F)c12 [Compound 302] | > 10000 nM |  | 
COC(=O)c1c(-c2ccc(O)cc2)nc2[nH]nc(N)c2c1-c1ccc(N2CCNCC2)cc1 [Compound 305] | < 100 nM |  | 
COC(=O)c1c(-c2ccc(OC(=O)C3CC3)cc2F)nc2[nH]nc(C)c2c1-c1ccc(N2CCNCC2)cc1 [Compound 306] | < 100 nM |  | 
COC(=O)c1c(-c2ccc(O)cc2)nc2[nH]nc(N)c2c1-c1ccc(N2CCN(C)CC2)cc1 [Compound 307] | < 100 nM |  | 

The remaining lines, values ahead:

IC50 (ALK kinase) | IC50 (karpas 299 cells; Homo sapiens, KARPAS-299, 72 h) | IC50 (karpas 299 cells; 72 hours) | SMILES
100 to 1000 nM | 1000 to 10000 nM |  | N#Cc1c(-c2ccc(O)cc2)nc2[nH]ncc2c1-c1ccc(O)cc1 [Compound 17]
100 to 1000 nM | 1000 to 10000 nM |  | N#Cc1c(-c2ccc(O)cc2)nc2[nH]ncc2c1-c1ccc(N2CCNCC2)cc1 [Compound 59]
100 to 1000 nM | 1000 to 10000 nM |  | N#Cc1c(-c2ccc(O)cc2)nc2[nH]ncc2c1-c1cccc(N2CCNCC2)c1 [Compound 68]
< 100 nM | 100 to 1000 nM |  | N#Cc1c(-c2ccc(O)cc2F)nc2[nH]ncc2c1-c1ccco1 [Compound 75]
100 to 1000 nM | 1000 to 10000 nM |  | N#Cc1c(-c2ccc(O)cc2F)nc2[nH]ncc2c1-c1ccc(CO)o1 [Compound 77]
100 to 1000 nM | 1000 to 10000 nM |  | CN1CCN(c2ccc(-c3c(C#N)c(-c4ccc(O)cc4)nc4[nH]ncc34)o2)CC1 [Compound 82]
< 100 nM | 100 to 1000 nM |  | CN1CCN(c2ccc(-c3c(C#N)c(-c4ccc(O)cc4F)nc4[nH]ncc34)o2)CC1 [Compound 83]
100 to 1000 nM | 1000 to 10000 nM |  | N#Cc1c(-c2ccc(O)cc2F)nc2[nH]ncc2c1-c1ccc(CN2CCOCC2)o1 [Compound 84]
100 to 1000 nM | 1000 to 10000 nM |  | CN1CCN(Cc2ccc(-c3c(C#N)c(-c4ccc(O)cc4F)nc4[nH]ncc34)o2)CC1 [Compound 85]
< 100 nM | 1000 to 10000 nM |  | N#Cc1c(-c2ccc(O)cc2F)nc2[nH]ncc2c1-c1ccc(N2CCOCC2)o1 [Compound 86]
< 100 nM |  | 100 to 1000 nM | Cc1n[nH]c2nc(-c3ccc(O)cc3F)c(C#N)c(-c3ccc(N4CCNCC4)cc3)c12 [Compound 88]
< 100 nM | 1000 to 10000 nM |  | N#Cc1c(-c2ccc(O)cc2F)nc2[nH]ncc2c1-c1ccc(N2CCNCC2)cc1 [Compound 91]
< 100 nM | 100 to 1000 nM |  | Cc1ccc(-c2c(C#N)c(-c3ccc(O)cc3F)nc3[nH]ncc23)o1 [Compound 92]
100 to 1000 nM | 1000 to 10000 nM |  | Cc1c(C#N)c(-c2ccc(O)cc2)nc2[nH]nc(-c3ccc(N4CCNCC4)cc3)c12 [Compound 96]
1000 to 10000 nM | 1000 to 10000 nM |  | N#Cc1c(-c2ccc(O)cc2F)nc2[nH]ncc2c1-c1ccc(-c2nn[nH]n2)cc1 [Compound 101]
< 100 nM | 100 to 1000 nM |  | N#Cc1cc2c(-c3ccc(N4CCNCC4)cc3)n[nH]c2nc1-c1ccc(O)cc1 [Compound 102]
100 to 1000 nM | 1000 to 10000 nM |  | Cc1c(C#N)c(-c2ccc(O)cc2)nc2[nH]nc(-c3cccc(N4CCNCC4)c3)c12 [Compound 106]
< 100 nM | 100 to 1000 nM |  | N#Cc1c(-c2ccc(O)cc2F)nc2[nH]ncc2c1-c1ccc(N2CCNCC2)o1 [Compound 113]
100 to 1000 nM | 1000 to 10000 nM |  | Cc1n[nH]c2nc(-c3ccc(O)cc3F)c(C#N)c(-c3ccc(N(C)C)cc3)c12 [Compound 116]
< 100 nM | 100 to 1000 nM |  | N#Cc1c(-c2ccc(O)cc2F)nc2[nH]ncc2c1-c1ccc(Br)o1 [Compound 117]
< 100 nM | 1000 to 10000 nM |  | Cc1c(C#N)c(-c2ccc(O)cc2F)nc2[nH]nc(-c3ccc(N4CCNCC4)cc3)c12 [Compound 118]
1000 to 10000 nM |  |  | N#Cc1c(-c2ccc(O)cc2)nc2[nH]nc(N)c2c1-c1ccc(N2CCNCC2)cc1 [Compound 303]
1000 to 10000 nM |  |  | N#Cc1c(-c2ccc(OC(=O)c3ccccc3)cc2F)nc2[nH]nc(N)c2c1-c1ccc(N2CCNCC2)cc1 [Compound 304]
